Assay results from patent US20250082931A1, “Treating Gastric Cancer Using TTFields Combined with XELOX, FOLFOX or the Individual Constituents Thereof” (Novocure GmbH, priority 2019, published 2025).

How the values were obtained:
AGS cells [1] = assay: Overall effect (cytotoxic effect x clonogenic effect); type: cell-based; details: 72 h
Experimental: After 6-14 days the colonies were fixed, stained and counted to determine clonogenic effect. The overall effect was calculated by multiplying the cytotoxic effect and the clonogenic effect.
Overall effect: Each colony number was multiply in the percent of cytotoxic effect of its dish and averages and standard deviations of each treatment were calculated in Excel software. […] Significant was determine by 2-way ANOVA followed Multiple comparison using GraphPed software.

KATO III cells [2] = assay: Cytotoxic effect by cell count after 72 h, with and without TTFields
Experimental: (§1) During the treatment the media of all dishes was replaced every 24 h (“hours”).
(§2) After 72 h of treatment the media and the cells were collected, and cytotoxicity was determined by cell counts.
(§3) Cells were seeded on inovitro dishes and petri dishes 24 h before starting the experiments. Media containing the indicated concentration of each chemotherapy component alone or FOLFOX and control media was added to the cells and the dishes were connected to TTFields (as in SOP-BI-009) or grown in 37° C., 5% CO2 for 72 h. Each treatment included 8 repeats (8 dishes). The media was replaced every 24 h. At the end of the experiment the cells were collected, and cytotoxicity was determined by cell counts, small number of cells were seeded for colonies and the cells (including cells from the media) were stained for Annexin V and 7AAD for apoptosis analysis.
(§4) A TTFields generator (Inovitro systems) was used to apply the treatment to the cells.
(§5) Cytotoxic effect: Average and standard deviation of cell number of at least 5 dishes from each treatment was calculated in Excel software. The averages from these repeats was calculated to averages and standard error and is presented as percent from control (no drug treatment) in XY graph of points with error bars using GraphPed software. Significant was determine by 2-way ANOVA followed Multiple comparison using GraphPed software.

KATO III cells [3] = assay: Apoptosis analysis by Annexin V / 7AAD staining; type: cell-based; details: for AnnV+ 7AAD+ cell fraction / AnnV+ 7AAD− cell fraction / AnnV− 7AAD+ cell fraction / AnnV− 7AAD− cell fraction: 72 h
Experimental: After 72 h of treatment the media and the cells were collected, and cytotoxicity was determined by cell counts. Cells (including cells from the media) were stained for Annexin V and 7AAD for apoptosis analysis. For the testing of the clonogenic effect, cells were seeded for colonies.
as §3
Apoptotic effect: Average of cell fraction of each marker staining (Annexin V and 7AAD) of at least 5 dishes from each treatment was calculated in Excel software. The averages from these repeats was calculated to averages and is presented in stacked bar graph using GraphPed software.

KATO III cells [4] = tested on: KATO III cells
Experimental: as §1, §2, §3, §4, §5

AGS cells [5] = assay: Cytotoxic effect by cell count after 72 h, with and without TTFields
Experimental: as §1, §2, §3, §4, §5

AGS cells [6] = tested on: AGS cells
Experimental: as §1, §2, §3, §4, §5

[7] = 1.5 uM, + TTFields 150 kHz 1.0 V/cm
[8] = 4.5 uM, + TTFields 150 kHz 1.0 V/cm
[9] = 13.5 uM, + TTFields 150 kHz 1.0 V/cm
[10] = 40 uM, + TTFields 150 kHz 1.0 V/cm
[11] = FOLFOX experiment, 0.5 uM, + TTFields 150 kHz 1.0 V/cm
[12] = FOLFOX experiment, 0.5 uM, no TTFields
[13] = FOLFOX experiment, 1.5 uM, + TTFields 150 kHz 1.6 V/cm
[14] = FOLFOX experiment, 1.5 uM, no TTFields
[15] = 1.5 nM, + TTFields 150 kHz 1.6 V/cm
[16] = 4.5 nM, + TTFields 150 kHz 1.6 V/cm
[17] = 13.5 nM, + TTFields 150 kHz 1.6 V/cm
[18] = 40 nM, + TTFields 150 kHz 1.6 V/cm

Compound: O=c1[nH]cc(F)c(=O)[nH]1 [5-FU, 5-fluorouracil]
- overall effect (colonies count multiplying the cytotoxic effect) (AGS cells [1]; [7]): 30 % from control
- overall effect (colonies count multiplying the cytotoxic effect) (AGS cells [1]; 1.5 uM, no TTFields): 81 % from control
- overall effect (colonies count multiplying the cytotoxic effect) (AGS cells [1]; [8]): 11 % from control
- overall effect (colonies count multiplying the cytotoxic effect) (AGS cells [1]; 4.5 uM, no TTFields): 50 % from control
- overall effect (colonies count multiplying the cytotoxic effect) (AGS cells [1]; [9]): 2 % from control
- overall effect (colonies count multiplying the cytotoxic effect) (AGS cells [1]; 13.5 uM, no TTFields): 2 % from control
- overall effect (colonies count multiplying the cytotoxic effect) (AGS cells [1]; [10]): 0 % from control
- overall effect (colonies count multiplying the cytotoxic effect) (AGS cells [1]; 40 uM, no TTFields): 0 % from control
- overall effect (colonies count multiplying the cytotoxic effect) (AGS cells [1]; [11]): 36 % from control
- overall effect (colonies count multiplying the cytotoxic effect) (AGS cells [1]; [12]): 87 % from control
- cell count (KATO III cells [2]; 1.5 uM, + TTFields 150 kHz 1.6 V/cm): 47 % from control
- cell count (KATO III cells [2]; 1.5 uM, no TTFields): 70 % from control
- cell count (KATO III cells [2]; 4.5 uM, + TTFields 150 kHz 1.6 V/cm): 42 % from control
- cell count (KATO III cells [2]; 4.5 uM, no TTFields): 56 % from control
- cell count (KATO III cells [2]; 13.5 uM, + TTFields 150 kHz 1.6 V/cm): 34 % from control
- cell count (KATO III cells [2]; 13.5 uM, no TTFields): 47 % from control
- cell count (KATO III cells [2]; 40 uM, + TTFields 150 kHz 1.6 V/cm): 32 % from control
- cell count (KATO III cells [2]; 40 uM, no TTFields): 34 % from control
- cell count (KATO III cells [2]; [13]): 50 % from control
- cell count (KATO III cells [2]; [14]): 73 % from control
- elevation in percent of cells that undergo apoptosis, drug + TTFields compared to drug alone (KATO III cells [3]): higher
- AnnV+ 7AAD+ cell fraction (KATO III cells [3]; [15]): 19.12%
- AnnV+ 7AAD− cell fraction (KATO III cells [3]; [15]): 17.49%
- AnnV− 7AAD+ cell fraction (KATO III cells [3]; [15]): 2.24%
- AnnV− 7AAD− cell fraction (KATO III cells [3]; [15]): 61.16%
- AnnV+ 7AAD+ cell fraction (KATO III cells [3]; 1.5 nM, no TTFields): 11.98%
- AnnV+ 7AAD− cell fraction (KATO III cells [3]; 1.5 nM, no TTFields): 11.44%
- AnnV− 7AAD+ cell fraction (KATO III cells [3]; 1.5 nM, no TTFields): 1.95%
- AnnV− 7AAD− cell fraction (KATO III cells [3]; 1.5 nM, no TTFields): 74.64%
- AnnV+ 7AAD+ cell fraction (KATO III cells [3]; [16]): 20.44%
- AnnV+ 7AAD− cell fraction (KATO III cells [3]; [16]): 13.34%
- AnnV− 7AAD+ cell fraction (KATO III cells [3]; [16]): 4.25%
- AnnV− 7AAD− cell fraction (KATO III cells [3]; [16]): 61.98%
- AnnV+ 7AAD+ cell fraction (KATO III cells [3]; 4.5 nM, no TTFields): 11.92%
- AnnV+ 7AAD− cell fraction (KATO III cells [3]; 4.5 nM, no TTFields): 11.00%
- AnnV− 7AAD+ cell fraction (KATO III cells [3]; 4.5 nM, no TTFields): 3.59%
- AnnV− 7AAD− cell fraction (KATO III cells [3]; 4.5 nM, no TTFields): 73.50%
- AnnV+ 7AAD+ cell fraction (KATO III cells [3]; [17]): 17.18%
- AnnV+ 7AAD− cell fraction (KATO III cells [3]; [17]): 16.21%
- AnnV− 7AAD+ cell fraction (KATO III cells [3]; [17]): 2.01%
- AnnV− 7AAD− cell fraction (KATO III cells [3]; [17]): 64.61%
- AnnV+ 7AAD+ cell fraction (KATO III cells [3]; 13.5 nM, no TTFields): 11.72%
- AnnV+ 7AAD− cell fraction (KATO III cells [3]; 13.5 nM, no TTFields): 12.44%
- AnnV− 7AAD+ cell fraction (KATO III cells [3]; 13.5 nM, no TTFields): 2.22%
- AnnV− 7AAD− cell fraction (KATO III cells [3]; 13.5 nM, no TTFields): 73.64%
- AnnV+ 7AAD+ cell fraction (KATO III cells [3]; [18]): 21.25%
- AnnV+ 7AAD− cell fraction (KATO III cells [3]; [18]): 11.40%
- AnnV− 7AAD+ cell fraction (KATO III cells [3]; [18]): 3.58%
- AnnV− 7AAD− cell fraction (KATO III cells [3]; [18]): 63.76%
- AnnV+ 7AAD+ cell fraction (KATO III cells [3]; 40 nM, no TTFields): 12.48%
- AnnV+ 7AAD− cell fraction (KATO III cells [3]; 40 nM, no TTFields): 10.55%
- AnnV− 7AAD+ cell fraction (KATO III cells [3]; 40 nM, no TTFields): 3.42%
- AnnV− 7AAD− cell fraction (KATO III cells [3]; 40 nM, no TTFields): 73.55%
- AnnV+ 7AAD+ cell fraction (KATO III cells [3]; [13]): 32.59%
- AnnV+ 7AAD− cell fraction (KATO III cells [3]; [13]): 16.09%
- AnnV− 7AAD+ cell fraction (KATO III cells [3]; [13]): 1.39%
- AnnV− 7AAD− cell fraction (KATO III cells [3]; [13]): 49.94%
- AnnV+ 7AAD+ cell fraction (KATO III cells [3]; [14]): 22.22%
- AnnV+ 7AAD− cell fraction (KATO III cells [3]; [14]): 11.36%
- AnnV− 7AAD+ cell fraction (KATO III cells [3]; [14]): 0.96%
- AnnV− 7AAD− cell fraction (KATO III cells [3]; [14]): 65.47%
- cytotoxic effect of drug + TTFields compared to drug alone (KATO III cells [4]): significantly higher
- cell count (AGS cells [5]; 0.5 uM, + TTFields 150 kHz 1.0 V/cm): 61 % from control
- cell count (AGS cells [5]; 0.5 uM, no TTFields): 90 % from control
- cell count (AGS cells [5]; [7]): 47 % from control
- cell count (AGS cells [5]; 1.5 uM, no TTFields): 83 % from control
- cell count (AGS cells [5]; [8]): 27 % from control
- cell count (AGS cells [5]; 4.5 uM, no TTFields): 52 % from control
- cell count (AGS cells [5]; [9]): 15 % from control
- cell count (AGS cells [5]; 13.5 uM, no TTFields): 24 % from control
- cell count (AGS cells [5]; [10]): 19 % from control
- cell count (AGS cells [5]; 40 uM, no TTFields): 25 % from control
- cell count (AGS cells [5]; [11]): 61 % from control
- cell count (AGS cells [5]; [12]): 79 % from control
- cytotoxic effect of drug + TTFields compared to drug alone (AGS cells [6]): significantly higher
